The assay has as its target Acetylcholinesterase (Homo sapiens, UniProt P22303). Nature of the assay: Inhibition of AChE by Ellman method. On the technique in general: Ellman's reagent forms a yellow product with free thiols.

Each structure is given as a SMILES string. The source made the active and inactive calls. The calls are words filed in the database; no cut-off is given here.

Chain of Acetylcholinesterase (P22303 whole entry): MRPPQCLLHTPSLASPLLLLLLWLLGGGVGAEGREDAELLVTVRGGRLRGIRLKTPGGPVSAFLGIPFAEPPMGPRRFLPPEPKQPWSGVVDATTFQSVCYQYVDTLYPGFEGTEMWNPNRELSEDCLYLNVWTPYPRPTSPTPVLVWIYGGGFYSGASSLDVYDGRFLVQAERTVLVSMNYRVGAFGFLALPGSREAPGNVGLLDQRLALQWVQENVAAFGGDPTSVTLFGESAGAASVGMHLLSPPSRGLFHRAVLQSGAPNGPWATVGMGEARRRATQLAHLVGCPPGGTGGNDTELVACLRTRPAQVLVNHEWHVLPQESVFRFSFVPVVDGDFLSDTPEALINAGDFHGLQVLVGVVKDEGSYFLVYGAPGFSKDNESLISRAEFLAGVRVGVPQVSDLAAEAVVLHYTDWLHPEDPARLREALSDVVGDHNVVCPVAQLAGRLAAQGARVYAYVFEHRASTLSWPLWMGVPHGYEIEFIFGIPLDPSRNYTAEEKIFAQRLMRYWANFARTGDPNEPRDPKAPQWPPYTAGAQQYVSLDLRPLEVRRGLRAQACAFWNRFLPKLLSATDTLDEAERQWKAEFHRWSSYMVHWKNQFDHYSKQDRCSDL

`C[C@H]1C=C2N3CCC[C@@H]4C(=O)C[C@H](C1)C24[C@H](O)CC3` (some centres undefined): the outcome was inactive.
As usually defined, the IC50 is the concentration that inhibits the measured activity by half. High values mean weaker potency, low ones greater potency. Compound `CC1=C[C@H]2[C@H](O)C(=O)[C@H]3CCCN4CCC[C@H]2[C@]34C1` registered an IC50 of 16.7 µM.
Still for that read-out and setting: in the case of `C[C@H]1C=C2N3CC[C@@H](O)C24[C@H](CC(=O)[C@H]4C[C@H](O)C3)C1` (some centres undefined) it was 27.9 µM.
`C[C@H]1C[C@]2(O)N3CC=CC24[C@H](CCC3)C(=O)C[C@@H]4[C@H]1O` (some centres undefined): the outcome was inactive.
